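Cultured in 96-well plates, cells were exposed to test compound for 48 hours across five concentrations. GI50: concentration for 50% inhibition of growth. TGI: concentration producing complete growth inhibition.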
What was measured:
Test in all cases: inhibition of tumour cell growth, NCI panel, 48 h
BT-549 breast = test system: BT-549 breast
DU-145 prostate = test system: DU-145 prostate
K-562 leukemia = test system: K-562 leukemia
MDA-MB-435 = test system: MDA-MB-435
MOLT-4 leukemia = test system: MOLT-4 leukemia
SF-539 CNS = test system: SF-539 CNS
SK-MEL-28 melanoma = test system: SK-MEL-28 melanoma
UACC-62 melanoma = test system: UACC-62 melanoma
NCI-H522 lung = test system: NCI-H522 lung
SK-MEL-2 melanoma = test system: SK-MEL-2 melanoma

## CCN1c2ccccc2C(Cl)(c2ccc(N(C)C)cc2)c2ccccc21
BT-549 breast
  GI50: 12 µM
  TGI: 29 µM
DU-145 prostate
  GI50: 5.5 µM
  TGI: 17.1 µM
K-562 leukemia
  GI50: 3.1 µM
  TGI: 25.7 µM
MDA-MB-435
  GI50: 3.34 µM
  TGI: 14 µM
MOLT-4 leukemia
  GI50: 3.27 µM
  TGI: 15.2 µM
SF-539 CNS
  GI50: 15.5 µM
  TGI: 29.2 µM
SK-MEL-28 melanoma
  GI50: 7.96 µM
  TGI: 22.4 µM
UACC-62 melanoma
  GI50: 11.6 µM
  TGI: 42.1 µM

## COc1ccccc1NC(=O)C1=C(C)NC(C)=C(C(=O)Nc2ccccc2OC)C1c1ccc(C)cc1
K-562 leukemia
  TGI: > 100 µM
NCI-H522 lung
  TGI: > 100 µM
SF-539 CNS
  TGI: > 100 µM
SK-MEL-2 melanoma
  TGI: > 100 µM
SK-MEL-28 melanoma
  TGI: > 100 µM
UACC-62 melanoma
  TGI: > 100 µM

## COc1ccc(/C=C\c2cc(OC)c(OC)c(OC)c2)cc1OC(=O)CCC(=O)O
BT-549 breast
  TGI: > 100 µM
MDA-MB-435
  TGI: < 0.0001 µM
SK-MEL-2 melanoma
  TGI: > 100 µM
SK-MEL-28 melanoma
  TGI: > 100 µM

## O=C1C(=O)N(c2ccc(Cl)cc2Cl)C(=O)C(=O)C1c1nc2ccccc2o1
K-562 leukemia
  TGI: > 100 µM
MOLT-4 leukemia
  TGI: > 100 µM
NCI-H522 lung
  TGI: > 100 µM
SF-539 CNS
  TGI: > 100 µM
SK-MEL-2 melanoma
  TGI: > 100 µM
SK-MEL-28 melanoma
  TGI: > 100 µM
UACC-62 melanoma
  TGI: > 100 µM

## CC1=CCC23C(C1)OC(Br)(C=CC2(C)O)C3(C)C (stereo unspecified)
K-562 leukemia
  TGI: > 100 µM
SF-539 CNS
  TGI: > 100 µM
SK-MEL-2 melanoma
  TGI: > 100 µM
SK-MEL-28 melanoma
  TGI: > 100 µM
UACC-62 melanoma
  TGI: > 100 µM

## CC(=O)CCCCO
K-562 leukemia
  TGI: > 100 µM
MOLT-4 leukemia
  TGI: > 100 µM
NCI-H522 lung
  TGI: > 100 µM
SF-539 CNS
  TGI: > 100 µM
SK-MEL-2 melanoma
  TGI: > 100 µM
SK-MEL-28 melanoma
  TGI: > 100 µM
UACC-62 melanoma
  TGI: > 100 µM

## O=C1CN(C(=O)c2ccccc2)Cc2[nH]c3ccccc3c21
K-562 leukemia
  TGI: > 100 µM
MOLT-4 leukemia
  TGI: > 100 µM
NCI-H522 lung
  TGI: > 100 µM
SF-539 CNS
  TGI: > 100 µM
SK-MEL-2 melanoma
  TGI: > 100 µM
SK-MEL-28 melanoma
  TGI: > 100 µM
UACC-62 melanoma
  TGI: > 100 µM

## CCOC(=O)C1SC(=Nc2ccc(Cl)c(Cl)c2)N=C1C (stereo unspecified)
K-562 leukemia
  TGI: 32.5 µM
MOLT-4 leukemia
  TGI: > 100 µM
NCI-H522 lung
  TGI: > 100 µM
SF-539 CNS
  TGI: > 100 µM
SK-MEL-2 melanoma
  TGI: > 100 µM
SK-MEL-28 melanoma
  TGI: > 100 µM
UACC-62 melanoma
  TGI: > 100 µM

## CN1CC(C(=O)C2C(=O)c3ccccc3C2=O)C(=O)C(=O)C(C(=O)C2C(=O)c3ccccc3C2=O)C1 (stereo unspecified)
K-562 leukemia
  TGI: > 100 µM
MOLT-4 leukemia
  TGI: > 100 µM
NCI-H522 lung
  TGI: > 100 µM
SF-539 CNS
  TGI: > 100 µM
SK-MEL-2 melanoma
  TGI: > 100 µM
SK-MEL-28 melanoma
  TGI: > 100 µM
UACC-62 melanoma
  TGI: > 100 µM

## COc1ccc(-n2c3c(c4c(CN5CCOCC5)c(O)ccc42)CCc2ccccc2C3=O)cc1
BT-549 breast
  GI50: 24.2 µM
  TGI: > 100 µM
DU-145 prostate
  GI50: 67.9 µM
  TGI: > 100 µM
K-562 leukemia
  GI50: 17.8 µM
  TGI: > 100 µM
MDA-MB-435
  GI50: 12.1 µM
  TGI: 47.8 µM
MOLT-4 leukemia
  GI50: 45.9 µM
  TGI: > 100 µM
NCI-H522 lung
  GI50: 7.28 µM
  TGI: 63.2 µM
SF-539 CNS
  GI50: 61 µM
  TGI: > 100 µM
SK-MEL-2 melanoma
  GI50: > 100 µM
  TGI: > 100 µM
UACC-62 melanoma
  GI50: > 100 µM
  TGI: > 100 µM

## CC(C)(C)C(=O)ON1N=NC2C3CC(OCc4ccccc4)(OCc4ccccc4)C(O3)C21 (stereo unspecified)
K-562 leukemia
  TGI: 37 µM
MOLT-4 leukemia
  TGI: 32.2 µM
SF-539 CNS
  TGI: 31 µM
SK-MEL-2 melanoma
  TGI: 34.3 µM
SK-MEL-28 melanoma
  TGI: 35.3 µM
UACC-62 melanoma
  TGI: 44.9 µM

## CCOC(=O)/C=C/C(C(=O)/C=C/c1ccc(O)c(OC)c1)=C(O)\C=C\c1ccc(O)c(OC)c1
DU-145 prostate
  GI50: 4.43 µM
  TGI: 18.7 µM
K-562 leukemia
  GI50: 5.66 µM
  TGI: > 100 µM
MDA-MB-435
  GI50: 3.29 µM
  TGI: 9.31 µM
MOLT-4 leukemia
  GI50: 4.27 µM
  TGI: > 100 µM
NCI-H522 lung
  GI50: 4.51 µM
  TGI: 36.4 µM
SK-MEL-2 melanoma
  GI50: 5.17 µM
  TGI: 26.2 µM
SK-MEL-28 melanoma
  GI50: 2 µM
  TGI: 6.09 µM
UACC-62 melanoma
  GI50: 1.85 µM
  TGI: 3.76 µM

## S=C1Nc2ccc(Cl)cc2C2(c3ccccc3)N3CCN=C3NN12 (stereo unspecified)
BT-549 breast
  GI50: 30.8 µM
  TGI: > 100 µM
DU-145 prostate
  GI50: 40 µM
  TGI: > 100 µM
K-562 leukemia
  GI50: 24.9 µM
  TGI: 66.1 µM
MDA-MB-435
  GI50: 43.2 µM
  TGI: > 100 µM
MOLT-4 leukemia
  GI50: 22.8 µM
  TGI: 61.6 µM
NCI-H522 lung
  GI50: 21.7 µM
  TGI: 48.1 µM
SF-539 CNS
  GI50: 36.7 µM
  TGI: > 100 µM
SK-MEL-28 melanoma
  GI50: 30.9 µM
  TGI: > 100 µM
UACC-62 melanoma
  GI50: 29.3 µM
  TGI: > 100 µM

## O=c1cc(-c2ccccc2)[nH]n1-c1nc2ccccc2[nH]1
BT-549 breast
  GI50: 7.03 µM
  TGI: > 100 µM
DU-145 prostate
  GI50: 9.97 µM
  TGI: > 100 µM
K-562 leukemia
  GI50: 3.94 µM
  TGI: > 100 µM
MDA-MB-435
  GI50: 5.07 µM
  TGI: > 100 µM
NCI-H522 lung
  GI50: 3.65 µM
  TGI: 17.6 µM
SF-539 CNS
  GI50: 3.94 µM
  TGI: 27.1 µM
SK-MEL-2 melanoma
  GI50: 9.32 µM
  TGI: 66.8 µM
SK-MEL-28 melanoma
  GI50: 3.61 µM
  TGI: > 100 µM
UACC-62 melanoma
  GI50: 3.1 µM
  TGI: 13.8 µM

## Cc1cc(NS(=O)(=O)c2ccc(NC(=O)c3cccc4c(Nc5ccc(S(=O)(=O)N=C(N)N)cc5)c5ccccc5nc34)cc2)no1
K-562 leukemia
  TGI: > 100 µM
MOLT-4 leukemia
  TGI: > 100 µM
NCI-H522 lung
  TGI: > 100 µM
SF-539 CNS
  TGI: > 100 µM
SK-MEL-28 melanoma
  TGI: > 100 µM
UACC-62 melanoma
  TGI: > 100 µM

## c1ccc(-c2nc(-c3ccccc3)c(-c3ccccc3)[nH]2)cc1
BT-549 breast
  TGI: > 100 µM
DU-145 prostate
  TGI: > 100 µM
MDA-MB-435
  TGI: > 100 µM
MOLT-4 leukemia
  TGI: > 57 µM
NCI-H522 lung
  TGI: > 100 µM
SF-539 CNS
  TGI: > 100 µM
SK-MEL-2 melanoma
  TGI: > 100 µM
SK-MEL-28 melanoma
  TGI: > 100 µM
UACC-62 melanoma
  TGI: > 100 µM

## Fc1ccc(C2SCc3nc4ccccc4n32)cc1 (stereo unspecified)
K-562 leukemia
  TGI: > 100 µM
MOLT-4 leukemia
  TGI: > 100 µM
NCI-H522 lung
  TGI: 70.9 µM
SF-539 CNS
  TGI: > 100 µM
SK-MEL-2 melanoma
  TGI: > 100 µM
SK-MEL-28 melanoma
  TGI: 76.5 µM

## O=C(OCC1CO1)c1cccs1 (stereo unspecified)
K-562 leukemia
  TGI: > 100 µM
MOLT-4 leukemia
  TGI: > 100 µM
NCI-H522 lung
  TGI: 36.9 µM
SK-MEL-2 melanoma
  TGI: > 100 µM
SK-MEL-28 melanoma
  TGI: > 100 µM
UACC-62 melanoma
  TGI: > 100 µM

## COc1ccc(C(=O)c2cc3c(OC)c(OC)c(OC)cc3[nH]2)cc1
BT-549 breast
  GI50: 8.51 µM
  TGI: > 100 µM
DU-145 prostate
  GI50: > 100 µM
  TGI: > 100 µM
K-562 leukemia
  GI50: 1.1 µM
  TGI: > 100 µM
MOLT-4 leukemia
  GI50: 3.51 µM
  TGI: > 100 µM
NCI-H522 lung
  GI50: 1.55 µM
  TGI: 6.04 µM
SF-539 CNS
  GI50: 4.76 µM
  TGI: > 100 µM
SK-MEL-28 melanoma
  GI50: 8.79 µM
  TGI: > 100 µM
UACC-62 melanoma
  GI50: 3.39 µM
  TGI: > 100 µM

## Nc1c(C(=O)Nc2ccccc2)[n+]([O-])c2ccccc2[n+]1[O-]
K-562 leukemia
  TGI: > 100 µM
MOLT-4 leukemia
  TGI: > 100 µM
NCI-H522 lung
  TGI: 4.4 µM
SF-539 CNS
  TGI: 37.3 µM
SK-MEL-2 melanoma
  TGI: 33.5 µM
SK-MEL-28 melanoma
  TGI: 34.9 µM
UACC-62 melanoma
  TGI: 22.6 µM

## COc1cc2c(cc1O)CC13CCC(=O)N1CCc1cc(OC)c(O)c-2c13 (stereo unspecified)
K-562 leukemia
  TGI: > 68.1 µM
MOLT-4 leukemia
  TGI: > 68.1 µM
SF-539 CNS
  TGI: > 68.1 µM
SK-MEL-28 melanoma
  TGI: > 68.1 µM
UACC-62 melanoma
  TGI: > 68.1 µM

## CCN(CCCl)CCCNc1c2ccccc2nc2ccc(OC)cc12
K-562 leukemia
  GI50: 116 µM
MOLT-4 leukemia
  GI50: 15.7 µM
NCI-H522 lung
  GI50: 103 µM
SF-539 CNS
  GI50: 421 µM
SK-MEL-2 melanoma
  GI50: 587 µM
SK-MEL-28 melanoma
  GI50: 665 µM
UACC-62 melanoma
  GI50: 255 µM

## CC(=O)OC1(C)C(=O)OC1(C)C(C)=O (stereo unspecified)
K-562 leukemia
  TGI: > 100 µM
MOLT-4 leukemia
  TGI: > 100 µM
NCI-H522 lung
  TGI: > 100 µM
SF-539 CNS
  TGI: > 100 µM
SK-MEL-2 melanoma
  TGI: > 100 µM
SK-MEL-28 melanoma
  TGI: > 100 µM
UACC-62 melanoma
  TGI: > 100 µM
